Where “and” joins values, the source holds several entries; their conditions need not be identical. Equal values may be shown once. Each block holds one molecule with its values, some of them ahead of it.
Key:
[1] = more specifically by glomerular filtration; cited from earlier work
[2] = GFR measurement with iohexol clearance (mGFR), living kidney donor candidates; assay type: in vivo
Description: (§1) All living kidney donor candidates investigated in Nephrology Department between July 2016 and October 2022, were eligible for inclusion. In accordance with the KDIGO guidelines (Lentine K L et al. ([11])), GFR was measured in all these individuals from iohexol clearance. […] The CT urography had to include 4 polychromatic acquisition phases (unenhanced, arterial, nephrographic, and excretory phases) with a monophasic injection of iomeprol at 350 or 400 mg of iodine per milliliter (Iomeron® 350 or 400, Bracco Imaging, Milano, Italy).
(§2) After a 5 mL bolus injection of iohexol (300 mg/L Omnipaque®; GE Healthcare, France), and an equilibration period (time the tracer takes to distribute in the extracellular compartment), blood and urine samples were collected over four to six consecutive clearance periods. We performed six 30-min periods after a 90-min equilibration period until July 2019, then four 40-min periods after a 120-min equilibration. The concentrations of iohexol in serum and urine were determined by high-performance liquid chromatography (HPLC) as previously described (Cavalier E et al. ([12])). Measured GFR (mGFR) was the mean of the four to six clearance-period values calculated as follows: U×V/P, where U is the concentration of iohexol in the urine collected during the period, V is the urinary flow rate during the period, and P is the serum concentration of iohexol at mid period. Given the negative bias of this GFR measurement method (Seegmiller J C et al. ([13]), Stehlé T et al. ([14])), the following correction was used: mGFR=1.15×iohexol urinary clearance+1.3 (Stehlé T et al. ([14])). If voiding was irregular or incomplete or in case of urine loss, mGFR was calculated with iohexol plasma clearance determined from the plasma disappearance curve, with Bröchner-Mortensen correction model for the missing early compartment (Bröchner-Mortensen J. A ([15])).

[3] = GFR measurement with iohexol clearance, chronic kidney disease patients; assay type: in vivo; conditions: mean ± SD, 28 CKD patients
Description: as §2, with “Given the negative bias of this GFR measurement method (Seegmiller J C et al. ([13]), Stehlé T et al. ([14])), the following correction was used: mGFR=1.15×iohexol urinary clearance+1.3 (Stehlé T et al. ([14])).” left out, “([15])). […]” for “([15])).”
Iohexol clearance was measured as previously described in the example 1.

[4] = GFR measurement with iomeprol clearance assessed by CT urography (CT-mGFR), living kidney donor candidates; assay type: in vivo
Description: This is a cross-sectional study using data from kidney donor candidates who were screened in hospital between July 2016 and October 2022, with both GFR measurement by iohexol clearance, and kidney morphology assessment by CT urogaphy.
as §1
CT-mGFR was assessed by the same U×V/P calculation used to determine the urinary clearance of iohexol: the amount of iomeprol excreted through the urinary system during a given period of time was divided by the mean serum iomeprol concentration during the same period. The blood and urine concentration of iomeprol were assessed by attenuation measurement (Hounsfield Units, HU) in the different areas of interest. The time periods were derived from the acquisition time of the different phases. […] Manual segmentations of bladder, upper urinary tracts and kidneys were performed using the Advantage Windows software (Advantage Window v4.7; GE Healthcare, Buc, France), using different thresholds depending on the CT phase and then manually finalized. For non-contrast and portal venous phase: only a lower limit was set to 0 HU, in order to exclude fat pixels. For excretory phases: a specific threshold was adapted for each patient based on visual analysis in order to reduce extra-urinary pixels as much as possible. Also, the lower threshold used for upper excretory tract was used as the higher threshold for kidney segmentation to avoid overlap in segmentations. The urinary excretion rate of iomeprol between arterial and excretory phases (U×V, expressed as HU/min) was calculated from urinary excretion of iomeprol into the bladder (Uexcr-Bladder), urinary excretion of iomeprol into the upper excretory tract (calyces, pelvis, ureters) (Uexcr-tract), and urinary excretion of iomeprol into the kidney tubules (Uexcr-tubules): U×V=Uexcr-Bladder+Uexcr-tract+Uexcr-tubules. Uexcr-bladder was the volume of the bladder at the excretory phase (Bladder-Volume) multiplied by the mean CT-attenuation of the bladder at the excretory phase (HU-Bladder-excr) minus the CT-attenuation of the urine in bladder at the unenhanced phase (HU-Bladder-unenhanced), then divided by the time period between the excretory phase and the arterial phase (time period): Uexcr-Bladder=Bladder-volume×(HU-Bladder-excr−HU-Bladder-unenhanced)/time period. When the bladder was not included on the unenhanced phase, urine CT-attenuation could be measured on the nephrographic phase, the urine density at the nephrographic phase being slightly higher than at the unenhanced phase, but without clinical consequence on the CT-mGFR calculation. Uexcr-tract was determined in the same way by studying the upper excretory tract (calyces, pelvis, ureters) instead of the bladder. Uexcr-tubules was the volume of both kidneys (Kidney-volumes) multiplied by mean CT-attenuation of kidneys at the excretory phase (HU-Kidney-excr) minus mean CT-attenuation of kidneys at the unenhanced phase (HU-Kidney-unenhanced), then divided by time period: Uexcr-tubules=Kidney-volumes×(HU-Kidney-excr-HU-Kidney-unenhanced)/time period. The denominator of the U×V/P equation, was the calculated serum iomeprol concentration at the midpoint of the period between the arterial and excretory phases. At each phase, the difference between the CT attenuation of the aorta and the one at the unenhanced phase was the surrogate for the serum iomeprol concentration. […]

[5] = after a bolus injection; cited from earlier work
plasma proteins = conditions: cited from earlier work
[6] = cited from earlier work

SMILES: CN(CC(O)CO)C(=O)c1c(I)c(NC(=O)C(CO)CO)c(I)c(C(=O)N(C)CC(O)CO)c1I (stereo not shown) [iobitridol]
- Route of elimination [1]: eliminated almost exclusively by the urinary excretion

SMILES: CC(=O)N(CC(O)CN(C(C)=O)c1c(I)c(C(=O)NCC(O)CO)c(I)c(C(=O)NCC(O)CO)c1I)c1c(I)c(C(=O)NCC(O)CO)c(I)c(C(=O)NCC(O)CO)c1I (stereo not shown) [iodixanol]
- Route of elimination [1]: eliminated almost exclusively by the urinary excretion

- mGFR (iohexol clearance), maximum ([2]; max): 140.2 ml/min/1.73 m^2
- mGFR (iohexol clearance) ([2]; mean ± SD, mGFR=1.15×iohexol urinary clearance+1.3): 99.7±19.1 ml/min/1.73 m^2
- mGFR (iohexol clearance), minimum ([2]; min): 59.9 ml/min/1.73 m^2
- mGFR, ml/min, mean ± SD ([2]; study population, Table 1): 99.7 ± 19.1 mL/min
SMILES: CC(=O)N(CC(O)CO)c1c(I)c(C(=O)NCC(O)CO)c(I)c(C(=O)NCC(O)CO)c1I (stereo not shown) [iohexol]
- Iohexol clearance-measured GFR [3]: 46.0 mL/min/1.73 m2 and 46.0 ± 15.8 mL/min/1.73 m2

- Serum iomeprol concentrations assessed at the arterial phase ([4]; example patient, 0 min, aorta attenuation minus unenhanced): 210.2 HU
- Serum iomeprol concentrations assessed at the nephrographic phase ([4]; example patient, 0.77 min, aorta attenuation minus unenhanced): 88.3 HU
- Serum iomeprol concentrations assessed at the excretory phase ([4]; example patient, 9.47 min, aorta attenuation minus unenhanced): 46.8 HU
- Ln (iomeprol mid-period) ([4]; example patient, mid-period between arterial and excretory phases): 4.396
- CT-mGFR, maximum ([4]; max): 174.0 ml/min/1.73 m^2
- Mean CT-mGFR (iomeprol clearance assessed by CT urography) ([4]; mean ± SD, n=75 living kidney donor candidates): 100.9±19.5 ml/min/1.73 m^2
- CT-mGFR, minimum ([4]; min): 60.8 ml/min/1.73 m^2
SMILES: CN(C(=O)CO)c1c(I)c(C(=O)NCC(O)CO)c(I)c(C(=O)NCC(O)CO)c1I (stereo not shown) [iomeprol]
- Correlation between its clearance and that of inulin [5]: very good correlation
- Extra-renal clearance [5]: negligible
- Plasma concentration decline [5]: declined biexponentially
- Plasma protein binding (plasma proteins): does not bind measurably to plasma proteins
- Water solubility [6]: hydrosoluble
